From US20140050779A1, “[…]-2 INHIBITORS AND USES THEREOF” (SINGAPORE HEALTH SERVICES PTE. LTD., priority 2011, published 2014)
“Also recorded” adds a separate entry of the source.

How the values were obtained:
Type in all cases: cell-based
mouse SF = test: effect of TG-2 inhibitors on cultured scleral fibroblast growth (XCELLigence)
Protocol: (§1) To test the effect of TG-2 inhibitors on cultured scleral fibroblast growth, cultured SF cells at passage 4 were treated with TG-2 inhibitors at baseline, 0.1, 1, 10 and 100 μM for 5 days. The SF cell growth was monitored by XCELLigence cell impedance.

human SF = test: as above
Protocol: as §1

cultured SF cells = test: as above
Protocol: as §1

TG-3 [1] = test: Western blot of TG proteins in human scleral fibroblasts after muscarinic agents; conditions: 0.01-10 μM for 5 days
TG-5 [2] = test: Western blot of TG proteins in mouse scleral fibroblasts after muscarinic agents; conditions: 0.01-10 μM for 5 days
TG-5 [3] = test: Western blot of TG proteins in human scleral fibroblasts after muscarinic agents; conditions: 0.01-10 μM for 5 days
TG-3 [4] = test: Western blot of TG proteins in mouse scleral fibroblasts after muscarinic agents; conditions: 0.01-10 μM for 5 days
Protocol: (§2) All cells used in examples described herein were between passages 2-4. Passaged cells were plated at a concentration of 2×10^5/mL into 6 well plates containing DMEM with 10% FBS. The cells were seen to attach to the bottom of the culture wells after 4 hours. Old media was removed from wells and 1 mL of drug was added with fresh full medium and incubated at 37° C. Fresh drugs were replaced daily consecutively for the next 5 days to avoid oxidation. The drugs/media was removed and wells were washed twice with 1×PBS. 200 μl of RIPA lysis buffer was added per well and incubated for 5 minutes and cells were scrapped into an eppendorf tube. The cells were stored at −20° C. until sonication. The cells were sonicated on ice thrice at 20% output power for 5 seconds each time and rested 1 minute in between each turn. Cell debris was spun down at 12000 rpm for 20 minutes. The supernatant was poured into a new eppendorf tube and cell concentrations were determined using the Dc Protein assay Kit (Bio-Rad, MA). Passaged cells were plated at a concentration of 1×10^5 into 6 well plates containing DMEM with 10% FBS. The cells were seen to attach to the bottom of the culture wells after 4 hours. Freshly prepared muscarinic agents' at base line, 0.1, 1, 10 and 100 μM concentrations were added for 5 days (Table 2). The culture medium was removed and fresh medium containing the same muscarinic drug added every day to avoid drug changes such as atropine oxidation. Cell lysate was collected for relative quantitative (q) PCR and protein analysis at day 5.
(§3) The cells were lysed by sonification in 1×RIPA lysis buffer (santa cruz biotechnology, Sc-24948) with 10 μl PMSF solution, 10 μl sodium orthovanadate solution and 20 μl protease inhibitor cocktail solution. After centrifugation at 20,000×g at 4° C. for 20 minutes, and the supernatant collected. The protein content in the supernatants was measured using the DC Protein Assay kit (Bio-Rad, MA) following the manufacturer's instructions. Samples were stored at −80° C. until assayed.
(§4) The mouse and human scleral fibroblasts were treated with atropine or carbachol at 0.01, 0.1, 1, 5 and 10 μM concentrations for 5 days. Following 5 days of treatment, the total cellular protein was extracted from these cells and TG proteins detected via Western blot analysis.
(§5) Human and, mouse scleral fibroblast proteins in the supernatant were separated by SDS-PAGE, transferred to nitrocellulose membranes, blocked in 5% BSA in TBST (10 mM Tris-HCl [pH 8.0], 150 mM NaCl, and […] Tween-20) for 2 hours at room temperature, and incubated with the same anti-TG-2 antibody described herein at a dilution of 1:1000 and anti β-tubulin antibodies used as a positive control, for 1 hour at room temperature. The membranes were washed 3 times in TBST and incubated with HRP-conjugated secondary antibody (Chemicon International) at a dilution of 1:2500 for 1 hour at room temperature. Immunoreactive bands were visualized using the enhanced chemiluminescence method (GE Healthcare, Buckinghamshire, UK). The membrane was wrapped in plastic and placed against an X-ray film to expose for an appropriate length of time (30 seconds-5 minutes).

TG-1 [5] = test: as above; conditions: 0.01-10 μM for 5 days
Protocol: as §2, §3, §4, §5

TG-2 [6] = test: as above; conditions: 0.01-10 μM for 5 days, Western blot
Protocol: as §2, §3, §4, §5

[7] = tested on: TGase 2 (TGM-2) transcript; test: qPCR of TGases mRNA in mouse scleral fibroblasts after muscarinic agents; conditions: 0.01-10 μM for 5 days, qPCR normalized to GAPDH
Protocol: (§6) P2 cultured mouse scleral fibroblasts were treated with atropine or carbachol at different concentrations of 0.01 μM, 0.1 μM, […], 5 μM and 10 μM for 5 days. Following 5 days of treatment, the total RNA was extracted from these cells and TGases transcript level was quantified via qPCR analysis. Height of bars show the means of three independent samples and error bars represent standard deviation. Values are normalized against GAPDH house keeping genes.
Murine scleral derived fibroblasts were cultured to passage 2 and treated to exogenous atropine or carbachol at 0.01 μM, 0.1 μM, 1 μM, 5 μM and 10 μM for 5 days. Following 5 days of treatment, the total RNA was extracted from these cells and RT-qPCR performed to determine transcript levels of TGM-2. The levels were normalized to GAPDH internal control. […] Height of bars or symbols represents mean and error bars SD. *: p<0.05 and **: p<0.001.
All cells used in examples described herein were between passages 2-4. Passaged cells were plated at a concentration of 2×10^5/mL into 6 well plates containing DMEM with 10% FBS. The cells were seen to attach to the bottom of the culture wells after 4 hours. […] The supernatant was poured into a new eppendorf tube and cell concentrations were determined using the Dc Protein assay Kit (Bio-Rad, MA). […] Cell lysate was collected for relative quantitative (q) PCR and protein analysis at day 5. […]

TGase-3 transcript = test: as above; conditions: 0.01-10 μM for 5 days, qPCR normalized to GAPDH
Protocol: as §6, §2
(§7) Total RNA was isolated from cultured human and mouse scleral fibroblasts using TRIzol reagent (Invitrogen life technologies, USA) in accordance with the manufacturer's instructions Chomczynski P, Sacchi N., “Single-step method of RNA isolation by acid guanidinium thiocyanate-phenol-chloroform extraction”, Anal. Biochem. 1987 April; 162(1):156-9. Genomic DNA was removed by digestion with DNase I (Amp Grade; Invitrogen-Gibco) for 15 minutes at room temperature. One microgram of total RNA was reverse-transcribed with random hexamers by using a first-strand cDNA synthesis kit (Invitrogen-Gibco). qPCR was performed in a 384-well plate format on an Roche 480 LightCycler Detection System (Roche Applied Science, Mannheim, Germany) with efficiency corrected software 4.0. PCR was performed using 50 ng of cDNA of each sample. The pre-validated hydrolysis probes for TG-2 were from human and mouse universal probe library (Roche, CA) and the primers for human and mouse are shown in Table 3. GAPDH Internal Standard (Roche) was used as an endogenous control. To standardize and evaluate scleral gene expression, aliquots of the same cDNA (50 ng) preparation were used as templates in all PCR reactions. The data was analyzed by comparative CT (MCT) method as previously described in Brink N, Szamel M, Young A R, Wittern K P, Bergemann J., “Comparative quantification of IL-1, IL-10, Il-10r, TNF and IL-7 mRNA levels in UV-irradiated human skin in vivo”, Inflamm Res. 2000 June; 49(6):290-6.

TGase 5 transcript = test: as above; conditions: 0.01-10 μM for 5 days, qPCR normalized to GAPDH
Protocol: as §6, §2, §7

TGase 1 transcript = test: as above; conditions: 0.01-10 μM for 5 days, qPCR normalized to GAPDH
Protocol: as §6, §2, §7

TG-1 [8] = test: Western blot of TG proteins in human scleral fibroblasts after muscarinic agents; conditions: 0.01-10 μM for 5 days
TG-2 [9] = test: TG-2 colorimetric microassay (transamidase activity) in lysate of treated mouse scleral fibroblasts; conditions: murine scleral derived fibroblasts, 0.01-10 μM for 5 days

| SMILES | concentration at which effective on SF cell growth (mouse SF) [µM] | concentration at which effective on SF cell growth (human SF) [µM] | effect of the higher concentrations on SF cells (cultured SF cells) | TG-3 protein level (TG-3 [1]) | TG-5 protein level (TG-5 [2]) | TG-5 protein level (TG-5 [3]) | TG-3 protein level (TG-3 [4]) | TG-1 protein level (TG-1 [5]) | TG-2 protein level (TG-2 [6]) | TGase 2 (TGM-2) transcript level [7] | TGase-3 transcript level (TGase-3 transcript) | TGase 5 transcript level (TGase 5 transcript) | TGase 1 transcript level (TGase 1 transcript) | TG-1 protein level (TG-1 [8]) | transamidase (cross-linking) activity of TG-2 (TG-2 [9]) |
| --- | --- | --- | --- | --- | --- | --- | --- | --- | --- | --- | --- | --- | --- | --- | --- |
| CN(C)c1cccc2c(S(=O)(=O)NCCCCCN)cccc12 [MDC, Monodansyl caderverine] | 50 | 10 | cell death and morphological change |  |  |  |  |  |  |  |  |  |  |  |  |
| C[N+](C)(C)CCOC(N)=O [carbachol] |  |  |  | the converse observed; also recorded: decreased | the converse was true; also recorded: increased | the converse was true; also recorded: increased | the converse observed; also recorded: decreased | the converse was true; also recorded: increased | increased; also recorded: opposite effect | opposite effect; also recorded: opposite findings | opposite findings | increased only by relatively higher concentrations | increased only by relatively higher concentrations | the converse was true; also recorded: increased | opposite effects |
